system: MCF-7 cells; experiment: In vitro growth inhibitory potency of anti-estrogen activity in MCF-7 cells; type: cell-based, human; settings: Homo sapiens, MCF7, 168 h; in the presence of E2, 7 days, Cell Titre Glo
Procedure: In Vitro Growth Inhibitory Potency of Anti-Estrogen Activity in MCF-7 Cells:
The estrogen receptor α (ERα) high expression human breast cancer MCF-7 cells (#HTB-22, A.T.C.C.) were cultured in DMEM medium supplemented by 10% fetal bovine serum (Gibco®) and 10 μg/ml bovine insulin (Sigma®). The cells were maintained in 75 cm^2 cell culture flask (Corning®) filled with 15 ml medium, 95% air and 5% CO2. Cells were split twice a week in a single layer cell culture.
For experiments related to 17β-Estradiol (E2), cells at logarithm growing stage were pretreated for two days without E2, the phenol red DMEM medium was replaced by the phenol red free DMEM/F12 medium, and FBS was replaced by 10% charcoal stripped FBS to remove the steroid and greatly decrease the hormone levels. Cells were seeded in 96 well cell culture plates (Corning®) with 4×10^3/well density, cultured in E2 free DMEM/F12 medium at 37° C. for 24 hours, 95% air and 5% CO2. All the compounds were stocked in DMSO as 0.01 M, serial diluted by the culture medium and added to the cells in the presence of proper E2 concentration. The final concentrations of compounds and DMSO were 3×10^−10˜1×10^−5 M and 0.1%. Cells were incubated at 37° C. for 7 days, medium containing E2 and compounds were changed every two days to maintain the chemical activity.
7 Days later, the viable cell numbers were calculated by the ATP amount from the luciferase quantity measurement (Cell Titre Glo® luciferase kit, Promega®). This method can be used to evaluate the stimulating estrogenicity of estrogen dependent cell growth under the condition of E2 free. The estrogenicity was tested by percentage compared to the maximum growth stimulation (100%) by E2. In this study, the percentage antagonist effects were evaluated by compared to the complete inhibition (100%) at the dose of 1×10^−5 M. The inhibition curves were generated by the reading numbers with the program Prism® 5, IC50 values were calculated.

| Structure (SMILES) | IC50 |
| --- | --- |
| CC/C(=C(\c1ccc(O)cc1)c1ccc(OCCNC)nc1)c1ccccc1 | < 100 nM |
| CC/C(=C(/c1ccc(O)cc1)c1ccc(OCCNC)nc1)c1ccccc1 | < 100 nM |
| CC/C(=C(\c1ccc(O)cc1)c1ccc(OCCN(C)C)nc1)c1ccccc1 | < 100 nM |
| CC/C(=C(\c1ccc(O)cc1)c1ccc(OC2CCNC2)nc1)c1ccccc1 (centres unmarked) | < 100 nM |
| CCC(=C(c1ccc(O)cc1)c1ccc(CCCN2CCCC2)nc1)c1ccccc1 | < 100 nM |
| CCC(=C(c1ccc(O)cc1)c1ccc(CCCN2CCCC2)cc1)c1ccccc1 | < 100 nM |
| CCC(=C(c1ccc(O)cc1)c1ccc(CCCNC)nc1)c1ccccc1 | < 100 nM |
| CCC(=C(c1ccc(O)cc1)c1ccc(CCCNC)cc1)c1ccccc1 | < 100 nM |
| CCC(=C(c1ccc(O)cc1)c1ccc(C#CCN2CCCC2)c(F)c1)c1ccccc1 | < 100 nM |
| CC/C(=C(\c1ccc(O)cc1)c1ccc(OCCNC)cc1)C1CCC(=O)CC1 | < 100 nM |
| CCC(=C(c1ccc(O)cc1)c1ccc(OCCNC)c(Br)c1)c1ccccc1 | < 100 nM |
| CC/C(=C(/c1ccc(O)cc1)c1ccc(N(C)CCNC)nc1)c1ccccc1 | < 100 nM |
| CCC(=C(c1ccc(O)cc1)c1ccc(O[C@@H]2CCNC2)cc1)c1ccccc1 | < 100 nM |
| CCC(=C(c1ccc(O)cc1)c1ccn(CCCN(C)C)c(=O)c1)c1ccccc1 | < 500 nM |
| CCC(=C(c1ccc(O)cc1)c1ccc(OCCNC)c(F)c1)c1ccccc1 | < 100 nM |
| CC/C(=C(/c1ccc(O)cc1)c1ccc(OCCNC)cc1)c1ccc(O)c(F)c1 | < 500 nM |
| CCC(=C(c1ccc(O)cc1)c1ccc(OCCNC)cc1)c1ccc2c(c1)CCO2 | < 100 nM |
| CCC(=C(c1ccc(O)cc1)c1ccc(OCCNC)cc1)c1ccc2nsnc2c1 | < 100 nM |
| CC/C(=C(/c1ccc(O)cc1)c1ccc(OCCNC)cc1)c1ccc2[nH]ncc2c1 | < 100 nM |

| Structure (SMILES) | IC50 |
| --- | --- |
| CCC(=C(c1ccc(O)cc1)c1ccc(OCCNC)cc1)c1ccc2occc2c1 | < 100 nM |
| CC/C(=C(\c1ccc(OC)cc1)c1ccc(OCCNC)cc1)c1ccc2oc(Cl)cc2c1 | < 500 nM |
| CCC(=C(c1ccc(O)cc1)c1ccc(OCCN2CCCC2)cc1)c1ccc2oc(Cl)cc2c1 | < 100 nM |
| CCC(=C(c1ccc(O)cc1)c1ccc(OCCN2CCOCC2)cc1)c1ccc2oc(Cl)cc2c1 | < 100 nM |
| CCC(=C(c1ccc(O)cc1)c1ccc(OCCN(CC)CC)cc1)c1ccc2oc(Cl)cc2c1 | < 100 nM |
| CCC(=C(c1ccc(O)cc1)c1ccc(OCCN(C)C)cc1)c1ccc2oc(Cl)cc2c1 | < 100 nM |
| CCC(=C(c1ccc(O)cc1)c1ccc(OCCN2CCNCC2)cc1)c1ccc2oc(Cl)cc2c1 | < 100 nM |
| CCC(=C(c1ccc(O)cc1)c1ccc(SCCNC)nc1)c1ccc2oc(Cl)cc2c1 | < 100 nM |
| CCC(=C(c1ccc(O)cc1)c1ccc(CCCN2CCCC2)nc1)c1ccc2oc(Cl)cc2c1 | < 100 nM |
| CCC(=C(c1ccc(O)cc1)c1ccc(OCCN(C)C)cn1)c1ccccc1 | < 500 nM |
| CCC(=C(c1ccc(O)cc1)c1ccc(CCCN(C)C)nc1)c1ccccc1 | < 100 nM |
| CCC(=C(c1ccc(O)cc1)c1ccc(OCC2CCCN2C)cc1)c1ccccc1 (centres unmarked) | < 100 nM |
| CC/C(=C(\c1ccc(O)cc1)c1ccc(OCCN2CCCC2)nc1)c1ccccc1 | < 100 nM |
| CC/C(=C(\c1ccc(O)cc1)c1ccc(OCCN2CCN(C)CC2)nc1)c1ccccc1 | < 100 nM |
| CC/C(=C(\c1ccc(O)cc1)c1ccc(OCCN2CCCCC2)nc1)c1ccccc1 | < 100 nM |
| CCC(=C(c1ccc(O)cc1)c1ccc(OCCNC)cc1)c1ccsc1 | < 100 nM |
| CC/C(=C(/c1ccc(O)cc1)c1ccc(OCCNC)cc1)c1csc(Cl)c1 | < 500 nM |
| CCC(=C(c1ccc(O)cc1)c1ccc(OCCNC)cc1)C1CCC(O)CC1 (centres unmarked) | < 500 nM |
| CC/C(=C(\c1ccc(O)cc1)c1ccc(SCCNC)nc1)c1ccccc1 | < 100 nM |

| Structure (SMILES) | IC50 |
| --- | --- |
| CCC(=C(c1ccc(O)cc1)c1ccc(OC[C@@H]2CCCN2)cc1)c1ccccc1 | < 100 nM |
| CCC(=C(c1ccc(O)cc1)c1ccc(OC2CCNC2)cc1)c1ccccc1 (centres unmarked) | < 100 nM |
| CCC(=C(c1ccc(O)cc1)c1ccc(OCCNC)cc1)c1ccc(O)c(OC)c1 | < 500 nM |
| CC/C(=C(\c1ccc(O)cc1)c1ccc(OCCNC)cc1)c1ccc(O)c(F)c1 | < 500 nM |
| CCC(=C(c1ccc(OCCNC)cc1)c1ccc(O)c(F)c1)c1ccccc1 | < 100 nM |
| CCC(=C(c1ccc(O)cc1)c1ccc(OCCNC)c(F)c1)c1ccc2c(c1)CCO2 | < 100 nM |
| CC/C(=C(\c1ccc(O)cc1)c1ccc(OCCNC)cc1)c1ccc2[nH]ncc2c1 | < 100 nM |
| CNCCOc1ccc(C(=C(CCCl)c2ccc3c(c2)CCO3)c2ccc(O)cc2)cc1 | < 100 nM |
| CC/C(=C(/c1ccc(O)cc1)c1ccc(OCCNC)cc1)c1ccc2oc(Cl)cc2c1 | < 100 nM |
| CCC(=C(c1ccc(O)cc1)c1ccc(OCCNC)nc1)c1ccc2c(c1)CCO2 | < 100 nM |
| CCC(=C(c1ccc(O)cc1)c1ccc(OCCN2CCCCC2)cc1)c1ccc2oc(Cl)cc2c1 | < 100 nM |
| CCC(=C(c1ccc(O)cc1)c1ccc(OCCN2CCN(C)CC2)cc1)c1ccc2oc(Cl)cc2c1 | < 100 nM |
| CCNCCOc1ccc(C(=C(CC)c2ccc3oc(Cl)cc3c2)c2ccc(O)cc2)cc1 | < 100 nM |
| CCC(=C(c1ccc(O)cc1)c1ccc(OCCN2CCCCCC2)cc1)c1ccc2oc(Cl)cc2c1 | < 100 nM |
| CCC(=C(c1ccc(O)cc1)c1ccc(OCCNC)nc1)c1ccc2oc(Cl)cc2c1 | < 100 nM |
| CCC(=C(c1ccc(O)cc1)c1ccc(N(C)CCNC)nc1)c1ccc2oc(Cl)cc2c1 | < 100 nM |
| CC/C(=C(\c1ccc(O)cc1)c1ccc(OCCN2CCOCC2)nc1)c1ccccc1 [drawing 318] | < 100 nM |
| CCC(=C(c1ccc(O)cc1)c1ccc(OCCNC)cc1)c1ccc2oc(Cl)cc2c1 [drawing 331] | < 100 nM |

same assay, conditions: in the presence of E2, 7 days, Cell Titre Glo

| Structure (SMILES) | IC50 |
| --- | --- |
| CCC(=C(c1ccc(O)cc1)c1ccc(OCCNC)cc1)c1ccc2oc(Cl)cc2c1 [drawing 303] | < 100 nM |

system: MCF-7; experiment: Anti-tumor (MCF-7) test in nude mice; type: in vivo; settings: 10 mg/kg PO, QD
Procedure: (§1) As shown in FIGURE and the table below, 21 days after the nude mouse was administered with Tamoxifen (20 mg/kg), the weight dropped by 20%, and a higher dose of 30 mg/kg of an exemplary compound of the present application, shown below as CT-946-01, led to a weight gain of 7%.

| Structure (SMILES) | TGI (%) 21 days |
| --- | --- |
| CC/C(=C(\c1ccc(O)cc1)c1ccc(OCCN2CCOCC2)nc1)c1ccccc1 [CT-946-01] | 108% |

same assay, conditions: 20 mg/kg PO, QD

| Structure (SMILES) | TGI (%) 21 days |
| --- | --- |
| CC/C(=C(\c1ccccc1)c1ccc(OCCN(C)C)cc1)c1ccccc1 [Tamoxifen, reference compound] | 22.4% |

same assay, conditions: 30 mg/kg PO, QD

| Structure (SMILES) | TGI (%) 21 days |
| --- | --- |
| CC/C(=C(\c1ccc(O)cc1)c1ccc(OCCN2CCOCC2)nc1)c1ccccc1 [CT-946-01] | 104% |

system: not listed separately; experiment: Weight change of nude mice during anti-tumor (MCF-7) test (toxicity); type: in vivo; settings: 10 mg/kg PO, QD; nude mice
Procedure: as §1

| Structure (SMILES) | BW (% of vehicle) |
| --- | --- |
| CC/C(=C(\c1ccc(O)cc1)c1ccc(OCCN2CCOCC2)nc1)c1ccccc1 [CT-946-01] | 104 % of vehicle |

same assay, conditions: 20 mg/kg PO, QD; nude mice

| Structure (SMILES) | BW (% of vehicle) |
| --- | --- |
| CC/C(=C(\c1ccccc1)c1ccc(OCCN(C)C)cc1)c1ccccc1 [Tamoxifen, reference compound] | 80.0 % of vehicle |

same assay, conditions: 20 mg/kg; 21 days after administration; nude mouse

| Structure (SMILES) | weight dropped |
| --- | --- |
| CC/C(=C(\c1ccccc1)c1ccc(OCCN(C)C)cc1)c1ccccc1 [Tamoxifen, reference compound] | 20% |

same assay, conditions: 30 mg/kg PO, QD; nude mice

| Structure (SMILES) | BW (% of vehicle) |
| --- | --- |
| CC/C(=C(\c1ccc(O)cc1)c1ccc(OCCN2CCOCC2)nc1)c1ccccc1 [CT-946-01] | 107 % of vehicle |

same assay, conditions: 30 mg/kg; 21 days after administration; nude mouse

| Structure (SMILES) | weight gain |
| --- | --- |
| CC/C(=C(\c1ccc(O)cc1)c1ccc(OCCN2CCOCC2)nc1)c1ccccc1 [CT-946-01] | 7% |

Reference: patent US9309211B2, “Arylalkene derivatives and use thereof as selective estrogen receptor modulators” (Centaurus BioPharma Co., Ltd., priority 2011, dated 2016)
